Laboratory results: EP3717657B1, “A SYSTEM FOR ASSESSING MICROBIAL SUSCEPTIBILITY TO ANTIBIOTIC AGENTS” (Ascilion AB, priority 2017, dated 2019)

Assays:
S. aureus = assay: Qualitative susceptibility by glucose consumption, bacteria from plated cultures (Example 2, Table 6); assay type: cell-based
Description: If the susceptibility score is a qualitative susceptibility score classifying the microorganism as "susceptible", or "non-susceptible" to an antibiotic agent the answer could be given in as little as 1 hour.
(§1) Bacteria from plated cultures were suspended in cation adjusted Mueller-Hinton broth (SVA, Uppsala, Sweden) supplemented with glucose. Consequently, the concentration of microorgansims was typically two orders of magnitude higher as compared to Example 1. […] The tested microorganisms was one strain of E. faecium, two strains of E.coli and one S. aureus. Table 6. "--" denotes no measurement

[1] = system: Staphylococcus aureus ATCC 29213; settings: S.aureus, cited from earlier work
[2] = system: Enterococcus faecalis ATCC 29212; settings: E.faecalis, cited from earlier work
[3] = system: Enterococcus faecalis (ATCC 29212); assay: Antibiotic susceptibility by glucose consumption in culture medium, blood culture bottle inoculum (Example 1); assay type: cell-based; settings: for Glucose concentration t=0: 0 minutes; for Glucose concentration t=60: 60 minutes; for Glucose concentration t=120: 120 minutes; for Glucose concentration t=180: 180 minutes; for dC/dT: rate of change in glucose concentration; for Glucose concentration t=240: 240 minutes;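 for dC/dT: rate calculated between the 60 and 180 min readings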
Method in brief: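 Bacteria grown in blood culture bottles until positive, diluted 1:100 into cation-adjusted Mueller-Hinton broth with glucose at 1.0 mg/mL plus antibiotic (µg/mL). Glucose read by glucometer at 0–240 min.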

E. coli ATCC 25922 [4] = assay: Qualitative susceptibility by glucose consumption, directly from positive BC-bottles (Example 2, Table 7); assay type: cell-based
E. coli 17 = assay: Qualitative susceptibility by glucose consumption, bacteria from plated cultures (Example 2, Table 6); assay type: cell-based
Description: as §1, with “If the susceptibility score is a qualitative susceptibility score classifying the microorganism as "susceptible", or "non-susceptible" to an antibiotic agent the answer could be given in as little as 1 hour. Bacteria” for “Bacteria”

E. faecium [5] = assay: as above; assay type: cell-based
Description: as §1, with “If the susceptibility score is a qualitative susceptibility score classifying the microorganism as "susceptible", or "non-susceptible" to an antibiotic agent the answer could be given in as little as 1 hour. Bacteria” for “Bacteria”

E. coli ATCC 25922 [6] = assay: as above; assay type: cell-based
Description: as §1, with “If the susceptibility score is a qualitative susceptibility score classifying the microorganism as "susceptible", or "non-susceptible" to an antibiotic agent the answer could be given in as little as 1 hour. Bacteria” for “Bacteria”

E. faecium [7] = assay: Qualitative susceptibility by glucose consumption, directly from positive BC-bottles (Example 2, Table 7); assay type: cell-based
Description: With slightly lower microbe concentrations e.g. directly from positive BC-bottles (^~10^9 CFU/ml) the results are shown at least within 2 hours, where E. coli ATCC 25922 is classified as susceptible and E. faecium is non-susceptible. Table 7. "--" denotes no measurement

[8] = system: Escherichia coli ATCC 25922; settings: E.coli, cited from earlier work
[9] = range obtained by EUCAST from ISO 20776-1: 2006
[10] = reference MIC value, EUCAST QC tables Version 7.0, 2017

## Gentamicin
S. aureus; S. aureus, 256 µg/mL, plated cultures, Table 6
  Qualitative susceptibility score: susceptible
S. aureus; [Ab] 256 µg/mL, t=15
  Glucose concentration t=15: 137
S. aureus; [Ab] 256 µg/mL, t=30
  Glucose concentration t=30: 139
S. aureus; [Ab] 256 µg/mL, t=45
  Glucose concentration t=45: 131
[1]; [9]
  MIC EUCAST, range in parentheses: 0.125 to 1 µg/mL
[1]; [10]
  MIC EUCAST: 0.25 to 0.5 µg/mL
[2]; [9]
  MIC EUCAST, range in parentheses: 4 to 16 µg/mL
[2]; [10]
  MIC EUCAST: 8 µg/mL
[3]; E.faecalis, 80% threshold of rate of change vs reference, between 60 and 180 minutes, obtained in 4 hours
  MIC Measured: 2 µg/mL
[3]; [Ab] 0,5 µg/mL
  F=the rate of change in glucose concentration in relation to the reference: 148%
  Glucose concentration t=0: 146
  Glucose concentration t=60: 160
  Glucose concentration t=120: 138
  Glucose concentration t=180: 97
  dC/dT: 53
[3]; [Ab] 0,25 µg/mL
  F=the rate of change in glucose concentration in relation to the reference: 144%
  Glucose concentration t=0: 142
  Glucose concentration t=60: 156
  Glucose concentration t=120: 143
  Glucose concentration t=180: 87
  dC/dT: 52
[3]; [Ab] 1 µg/mL
  F=the rate of change in glucose concentration in relation to the reference: 106%
  Glucose concentration t=0: 145
  Glucose concentration t=60: 150
  Glucose concentration t=120: 138
  Glucose concentration t=180: 100
  Glucose concentration t=240: 36
  dC/dT: 38
[3]; [Ab] 2 µg/mL
  F=the rate of change in glucose concentration in relation to the reference: 75%
  Glucose concentration t=0: 147
  Glucose concentration t=60: 156
  Glucose concentration t=120: 143
  Glucose concentration t=180: 110
  Glucose concentration t=240: 75
  dC/dT: 27
[3]; [Ab] 4 µg/mL
  F=the rate of change in glucose concentration in relation to the reference: 46%
  Glucose concentration t=0: 147
  Glucose concentration t=60: 154
  Glucose concentration t=120: 151
  Glucose concentration t=180: 118
  Glucose concentration t=240: 104
  dC/dT: 17
[3]; [Ab] 8 µg/mL
  F=the rate of change in glucose concentration in relation to the reference: 14%
  Glucose concentration t=0: 143
  Glucose concentration t=60: 155
  Glucose concentration t=120: 134
  Glucose concentration t=180: 136
  Glucose concentration t=240: 140
  dC/dT: 5
[3]; [Ab] 16 µg/mL
  F=the rate of change in glucose concentration in relation to the reference: 18%
  Glucose concentration t=0: 147
  Glucose concentration t=60: 160
  Glucose concentration t=120: 152
  Glucose concentration t=180: 155
  dC/dT: 6
[3]; [Ab] 32 µg/mL
  F=the rate of change in glucose concentration in relation to the reference: 3%
  Glucose concentration t=0: 143
  Glucose concentration t=60: 151
  Glucose concentration t=180: 142
  Glucose concentration t=240: 148
  dC/dT: 1
E. coli ATCC 25922 [4]; E. coli ATCC 25922, 256 µg/mL, from positive BC-bottles, within 2 hours, Table 7
  Qualitative susceptibility score: susceptible
E. coli ATCC 25922 [4]; [Ab] 256 µg/mL, t=0
  Glucose concentration t=0: 145
E. coli ATCC 25922 [4]; [Ab] 256 µg/mL, t=45
  Glucose concentration t=45: 155
E. coli ATCC 25922 [4]; [Ab] 256 µg/mL, t=60
  Glucose concentration t=60: 151
E. coli ATCC 25922 [4]; [Ab] 256 µg/mL, t=90
  Glucose concentration t=90: 140
E. coli ATCC 25922 [4]; [Ab] 256 µg/mL, t=105
  Glucose concentration t=105: 135
E. coli 17; E. coli 17, 256 µg/mL, plated cultures, Table 6
  Qualitative susceptibility score: susceptible
E. coli 17; [Ab] 256 µg/mL, t=15
  Glucose concentration t=15: 131
E. coli 17; [Ab] 256 µg/mL, t=30
  Glucose concentration t=30: 126
E. coli 17; [Ab] 256 µg/mL, t=45
  Glucose concentration t=45: 123
E. faecium [5]; E. faecium, 256 µg/mL, plated cultures, Table 6
  Qualitative susceptibility score: non-susceptible
E. faecium [5]; [Ab] 256 µg/mL, t=0
  Glucose concentration t=0: 79
E. faecium [5]; [Ab] 256 µg/mL, t=15
  Glucose concentration t=15: 47
E. coli ATCC 25922 [6]; E. coli ATCC 25922, 256 µg/mL, plated cultures, Table 6
  Qualitative susceptibility score: susceptible
E. coli ATCC 25922 [6]; [Ab] 256 µg/mL, t=15
  Glucose concentration t=15: 156
E. coli ATCC 25922 [6]; [Ab] 256 µg/mL, t=30
  Glucose concentration t=30: 155
E. coli ATCC 25922 [6]; [Ab] 256 µg/mL, t=45
  Glucose concentration t=45: 136
E. faecium [7]; E. faecium, 256 µg/mL, from positive BC-bottles, within 2 hours, Table 7
  Qualitative susceptibility score: non-susceptible
E. faecium [7]; [Ab] 256 µg/mL, t=0
  Glucose concentration t=0: 144
E. faecium [7]; [Ab] 256 µg/mL, t=45
  Glucose concentration t=45: 105
E. faecium [7]; [Ab] 256 µg/mL, t=60
  Glucose concentration t=60: 77
E. faecium [7]; [Ab] 256 µg/mL, t=75
  Glucose concentration t=75: 47
[8]; [9]
  MIC EUCAST, range in parentheses: 0.25 to 1 µg/mL
[8]; [10]
  MIC EUCAST: 0.5 µg/mL
